Experimental data published in patent US5567716A, “Trans and cis traumatic acid salts having cicatrizant activity associated to bacteriostatic, antiviral, antibiotic or antifungal activity” (priority 1992, dated 1996).
Where two headings read alike, the source gives them in different places.

Experiments:
[1] = for organic solvent solubility: dmso
E.coli ATCC 35218 = test: microbe, parasite or virus in culture; format: cell-based; conditions: for MINIMAL BACTERIAL CONCENTRATION: Table 2.b)3, test concentrations given in μg/ml
Description: (§1) 1. Culture Medium: Tryprone Soy Broth (TBS) - Biogenetics
(§2) Microbic standard strains from American Type Culture Collection (ATCC) were used, chosen among aerobic Gram positive and negative as follows:
(§3) The broths culture of the different species are prepared growing the standard strain (kept in Tryptic Soy Agar (TSA) slent at 5° C.) in Tryptone Soy Broth (TSB) for 12 hours at 37° C. 10 ml are then taken up from each culture, centrifugated for 3 times at 3500 PM washing each time the sediment using 10 ml of sterile saline solution. The sediment is resuspended in the saline solution until obtainment of a turbidity corresponding to the Mc Farland standard solution (the suspension title must be […] UFC/ml).
(§4) The compounds, dissolved as stock solution, were added to test tubes containing 5 ml TBS in order to obtain the desired Final concentration 10000; 5000; 1000; 200; 40; 2; 0.4; 0.05 μg/ml (culture medium maximal dilution=1/10).
(§5) 50 μl of bacterial suspension are added to the tube containing the compounds to be tested and incubated at 37° C.: the densitometric determination is made in comparison with Mc Farland standard solution 24 and 48 hours later.
(§6) After the incubation time the suspensions ape gently agitated; 50 μl of each suspension are inoculated in tubes containing […] of TSB and incubated at 37° C.; the densitometric determination is made 48 hours later.
(§7) BMC is defined by comparison between the two densitometric evaluation.

Ps.aeruginosa ATCC 35422 = test: Evaluation of bacteriostatic minimal concentration (BMC); format: cell-based; conditions: for MINIMAL BACTERIAL CONCENTRATION: Table 2.b)1, test concentrations given in μg/ml
Description: as §1, §2, §3, §4, §5, §6, §7

St.aureus ATCC 65380 = test: as above; format: cell-based; conditions: for MINIMAL BACTERIAL CONCENTRATION: Table 2.b)2, test concentrations given in μg/ml
Description: as §1, §2, §3, §4, §5, §6, §7

B.subtilis ATCC 6633 = test: as above; format: cell-based; conditions: test concentrations given in μg/ml; for MINIMAL BACTERIAL CONCENTRATION: Table 2.b)5
Description: as §1, §2, §3, §4, §5, §6, §7

C.albicans ATCC 10231 = test: as above; format: cell-based; conditions: test concentrations given in μg/ml; for MINIMAL BACTERIAL CONCENTRATION: Table 2.b)6
Description: as §1, §2, §3, §4, §5, §6, §7

[2] = system: St.epidermidis ATCC 14990; test: as above; format: cell-based; conditions: test concentrations given in μg/ml
Description: as §1, §2, §3, §4, §5, §6, §7

[3] = Physical chemical characteristics: solubility in water and organic solvents
Balb/C 3T3 fibroblasts = test: Cell growth of Balb/C 3T3 fibroblasts, crystal violet colorimetry (1.1b); format: cell-based, Mouse; conditions: for cell growth t2/t1: 48 h/24 h, control 76.776
Description: Mouse Balb/C 3T3 fibroblasts were grown in DMEM medium supplemented with penicillin (100 units/ml) and streptomycin (0.1 mg/ml). For experimental purposes, cells are routinely inoculated in […] diameter culture dishes (5000cells/dish) and cultured overnight.
The compounds to be tested are solubilized in DMEM+10%FCS and DMSO to obtain the final concentration of 10^-5 M, 10^-6 M e 10^-7 M in 0.05% DMSO.
The cells number is measured 4, 24 and 48 hours after seeding. The cell growth is evaluated as t2/t1 ratio (%).

For `NC[C@H]1O[C@H](O[C@H]2[C@H](O)[C@@H](O[C@H]3O[C@H](CO)[C@@H](O)[C@H](N)[C@H]3O)[C@H](N)C[C@@H]2N)[C@H](N)C[C@@H]1O.NC[C@H]1O[C@H](O[C@H]2[C@H](O)[C@@H](O[C@H]3O[C@H](CO)[C@@H](O)[C@H](N)[C@H]3O)[C@H](N)C[C@@H]2N)[C@H](N)C[C@@H]1O.O=C(O)/C=C/CCCCCCCCC(=O)O.O=C(O)/C=C/CCCCCCCCC(=O)O.O=C(O)/C=C/CCCCCCCCC(=O)O.O=C(O)/C=C/CCCCCCCCC(=O)O.O=C(O)/C=C/CCCCCCCCC(=O)O` [Tobramycin Traumatate, tobramycin trans-traumatate], the organic solvent solubility [1] was greater than 10000 µg/mL, the solubility in water ([1]; water) was greater than 10000 µg/mL and the “MINIMAL BACTERIAL CONCENTRATION” value (E.coli ATCC 35218) was 200.00. For the same compound, the “MINIMAL BACTERIAL CONCENTRATION” value (Ps.aeruginosa ATCC 35422) was 5,000 and the “MINIMAL BACTERIAL CONCENTRATION” value (St.aureus ATCC 65380) was 1,000.00.

`O=C([O-])/C=C/CCCCCCCCC(=O)[O-].[Zn+2]` [Zinc Traumatate, zinc trans-traumatate] showed an MIC (E.coli ATCC 35218; Escherichia coli, ATCC35218, read-out: MINIMAL BACTERIAL CONCENTRATION) greater than 10000 µg/mL, an MIC (B.subtilis ATCC 6633; Bacillus subtilis, ATCC6633; Table 2.b)5, read-out: MINIMAL BACTERIAL CONCENTRATION) greater than 10000 µg/mL and an MIC (Ps.aeruginosa ATCC 35422; Pseudomonas aeruginosa, ATCC35422, read-out: MINIMAL BACTERIAL CONCENTRATION) greater than 10000 µg/mL. It also gave an MIC (St.aureus ATCC 65380; Staphylococcus aureus, ATCC65380, read-out: MINIMAL BACTERIAL CONCENTRATION) greater than 10000 µg/mL, an MIC (C.albicans ATCC 10231; Candida albicans, ATCC10231; Table 2.b)6, read-out: MINIMAL BACTERIAL CONCENTRATION) greater than 10000 µg/mL and an MIC ([2]; Staphylococcus epidermidis, ATCC14990; Table 2.b)4, read-out: MINIMAL BACTERIAL CONCENTRATION) greater than 10000 µg/mL. For the same compound, the solubility ([3]; 5% nh3) was greater than 10000 µg/mL, the organic solvent solubility ([3]; in DMSO, in words) was “poorly soluble” and the organic solvent solubility ([3]; in ethanol, in words) was “poorly soluble”. For the same compound, the water solubility ([3]; in words) was “poorly soluble”.

For `CC[C@H]1OC(=O)[C@H](C)[C@@H](O[C@H]2C[C@@](C)(OC)[C@@H](O)[C@H](C)O2)[C@H](C)[C@@H](O[C@@H]2O[C@H](C)C[C@H](N(C)C)[C@H]2O)[C@](C)(O)C[C@@H](C)C(=O)[C@H](C)[C@@H](O)[C@]1(C)O.CC[C@H]1OC(=O)[C@H](C)[C@@H](O[C@H]2C[C@@](C)(OC)[C@@H](O)[C@H](C)O2)[C@H](C)[C@@H](O[C@@H]2O[C@H](C)C[C@H](N(C)C)[C@H]2O)[C@](C)(O)C[C@@H](C)C(=O)[C@H](C)[C@@H](O)[C@]1(C)O.O=C(O)/C=C/CCCCCCCCC(=O)O` [Erythromycin Traumatate, Erythromycin trans-traumatate], the “MINIMAL BACTERIAL CONCENTRATION” value (E.coli ATCC 35218) was 10,000.00, the “MINIMAL BACTERIAL CONCENTRATION” value (B.subtilis ATCC 6633) was 1,000.00 and the “MINIMAL BACTERIAL CONCENTRATION” value (Ps.aeruginosa ATCC 35422) was 10,000.00. The “MINIMAL BACTERIAL CONCENTRATION” value (St.aureus ATCC 65380) was 10,000.00, the “MINIMAL BACTERIAL CONCENTRATION” value (C.albicans ATCC 10231) was > 10,000 and the “promotion of cell growth” value (Balb/C 3T3 fibroblasts; 10^-5 to 10^-7 M, in words, lincomycin > rolitetracycline > erythromycin salt) was “capable to promote cell growth at all the tested doses”. The Cell density (Balb/C 3T3 fibroblasts; 4 h (t0), 10^-5M, control 0.300) was 0.370, the Cell density (Balb/C 3T3 fibroblasts; 4 h (t0), 10^-6M, control 0.300) was 0.352 and the Cell density (Balb/C 3T3 fibroblasts; 4 h (t0), 10^-7M, control 0.300) was 0.344. It also gave a Cell density (Balb/C 3T3 fibroblasts; 24 h (t1), 10^-5M, control 0.481) of 0.365, a Cell density (Balb/C 3T3 fibroblasts; 24 h (t1), 10^-6M, control 0.481) of 0.369 and a Cell density (Balb/C 3T3 fibroblasts; 24 h (t1), 10^-7M, control 0.481) of 0.368. For the same compound, the Cell density (Balb/C 3T3 fibroblasts; 48 h (t2), 10^-5M, control 0.849) was 0.919, the Cell density (Balb/C 3T3 fibroblasts; 48 h (t2), 10^-6M, control 0.849) was 0.921 and the Cell density (Balb/C 3T3 fibroblasts; 48 h (t2), 10^-7M, control 0.849) was 1.074. The “cell growth t2/t1” value (Balb/C 3T3 fibroblasts; 10^-5M) was 159.16%, the “cell growth t2/t1” value (Balb/C 3T3 fibroblasts; 10^-6M) was 148.64% and the “cell growth t2/t1” value (Balb/C 3T3 fibroblasts; 10^-7M) was 196.81%. For the same compound, the “cell growth effect compared to traumatic acid” value (Balb/C 3T3 fibroblasts; in words) was “more consistent if compared to the corresponding one of the parent compound traumatic acid”, the organic solvent solubility ([3]; in DMSO) was greater than 10000 µg/mL and the organic solvent solubility ([3]; in ethanol) was greater than 10000 µg/mL. The water solubility ([3]; in words) was “poorly soluble”.

With `NC(=NCCCCCCN=C(N)N=C(N)Nc1ccc(Cl)cc1)N=C(N)Nc1ccc(Cl)cc1.O=C(O)/C=C/CCCCCCCCC(=O)O` [Chlorhexidine Traumatate, chlorhexidine trans-traumatate] the organic solvent solubility [1] was greater than 10000 µg/mL, the “MINIMAL BACTERIAL CONCENTRATION” value (E.coli ATCC 35218) was 8.00 and the “MINIMAL BACTERIAL CONCENTRATION” value (B.subtilis ATCC 6633) was 2.00. For the same compound, the “MINIMAL BACTERIAL CONCENTRATION” value (Ps.aeruginosa ATCC 35422) was 40.00, the “MINIMAL BACTERIAL CONCENTRATION” value (St.aureus ATCC 65380) was 8.00 and the “MINIMAL BACTERIAL CONCENTRATION” value (C.albicans ATCC 10231) was 2.00. For the same compound, the “MINIMAL BACTERIAL CONCENTRATION” value ([2]; Table 2.b)4) was 2.00.
